Experimental data taken from publication PMC11475482, “The 2‐oxoglutarate/malate carrier extends the family of mitochondrial carriers capable of fatty acid and 2,4‐dinitrophenol‐activated proton transport” (Acta Physiologica (Oxford, England), 2024).
Positions count from the first letter of the chain named.

Key:
Assay in all cases: planar lipid bilayer proton conductance
Assay type in all cases: biochemical
[1] = molecular target: T1, mOGC (2‐oxoglutarate/malate carrier, SLC25A11) (Mus musculus, UniProt Q9CR62, R90S)
T1 construct: 34 kDa monomer, dimer (~69 kDa) on SDS-PAGE (dimer possibly artefact); tag not mentioned
T1 sequence (Q9CR62 2-314 R90S): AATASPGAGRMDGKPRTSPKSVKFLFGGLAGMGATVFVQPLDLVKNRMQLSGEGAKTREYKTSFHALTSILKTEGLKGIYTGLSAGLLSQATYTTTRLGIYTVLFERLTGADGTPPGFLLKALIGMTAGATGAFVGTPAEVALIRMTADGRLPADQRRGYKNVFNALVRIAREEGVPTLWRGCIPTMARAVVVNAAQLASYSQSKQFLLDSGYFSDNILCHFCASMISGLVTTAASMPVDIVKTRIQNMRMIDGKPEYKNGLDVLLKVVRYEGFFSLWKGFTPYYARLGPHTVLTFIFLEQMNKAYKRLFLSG

[2] = molecular target: T2, mOGC (2‐oxoglutarate/malate carrier, SLC25A11) (Mus musculus, UniProt Q9CR62)
T2 construct: 34 kDa monomer, dimer (~69 kDa) on SDS-PAGE (dimer possibly artefact); tag not mentioned
T2 sequence (Q9CR62 2-314): T1 sequence (Q9CR62 2-314 R90S) with S89R

[3] = molecular target: T2, mOGC (2‐oxoglutarate/malate carrier, SLC25A11); settings: total membrane conductance with mOGC; activator (protonophore); pH 7.34, 32°C
[4] = molecular target: T2, mOGC (2‐oxoglutarate/malate carrier, SLC25A11); settings: read-out: % inhibition at 4 mM

Row | IC50 [2] [µM] | Gm at 15 mol% [3] [nS/cm^2] | inhibition at 4000 µM [4] [%] | Structure (SMILES) | inhibition at 2000 µM [1] [%]
1 | 60 ± 10 |  |  | O=C(O)CCC(=O)C(=O)O [2‐oxoglutarate] | 19
2 | 1000 ± 110 |  |  | O=C(O)CC(C(=O)O)c1ccccc1 (stereo not shown) [phenylsuccinate] | 
3 |  | 92.5 ± 16.5 |  | CCCCC/C=C\C/C=C\C/C=C\C/C=C\CCCC(=O)O [arachidonic acid] | 
4 |  |  | 75 | Nc1ncnc2c1ncn2[C@@H]1O[C@H](COP(=O)(O)OP(=O)(O)OP(=O)(O)O)[C@@H](O)[C@H]1O [ATP] | 

Row | Structure (SMILES) | IC50 [2] [µM] | Gm at 15 mol% [3] [nS/cm^2] | inhibition at 4000 µM [4] [%] | inhibition at 2000 µM [1] [%]
5 | O=C(O)C[C@H](O)C(=O)O [malate] | 100 ± 60 |  |  | 74
